In publication PMC12874371, “Screening of FDA-Approved Small Molecules to Discover Inhibitors of the Pseudomonas aeruginosa Quorum-Sensing Enzyme, PqsE” (Biochemistry, 2026):

Tests used:
[1] = target: T1, PqsE(WT) (Pseudomonas aeruginosa, UniProt P20581); assay: biochemical
T1 construct: 6xHis (N); made in house; host or cells: E. coli BL21 (DE3), pET28b-6xHis-pqsE(WT) (strain SM776)

[2] = target: T2, PqsE(S285W) (Pseudomonas aeruginosa, UniProt P20581, S285W); assay: biochemical
T2 construct: 6xHis (N); made in house; host or cells: E. coli BL21 (DE3), pET28b-6xHis-pqsE(S285W) (strain IT55)

[3] = target: T3, intracellular PqsE (Pseudomonas aeruginosa, UniProt P20581); type: cell-based; details: 8 h growth
T3 construct: endogenous in cells; host or cells: P. aeruginosa UCBPP-PA14 wild type

[4] = test system: azeB expression; assay: azeB-luxCDABE reporter (dual pyocyanin/azeB-lux assay); details: 50 and 100 μM, azeB-lux reporter strains

Row | SMILES | IC50 [1] [µM] | IC50 [2] [µM] | Effect on acetophenone levels ([3]; 10 and 100 μM) | Effect on azeB expression (luminescence/OD600) [4] | Decrease in acetophenone ([3]; 10 μM, wildtype P. aeruginosa) [%] | Effect on acetophenone levels at 100 μM ([3]; 100 μM, compared to pqsE(D73A) strain)
1 | CN1CCc2cccc3c2[C@H]1Cc1ccc(O)c(O)c1-3 [Apomorphine] | 18 | 22 | no significant effect on acetophenone levels | not accompanied by increases in azeB expression |  | 
2 | O=c1n(CCCN2CCN(c3cccc(Cl)c3)CC2)nc2ccccn12 [Trazodone] |  |  |  | not accompanied by increases in azeB expression |  | 
3 | O=C(CCCCCCC(=O)Nc1ccccc1)NO [Vorinostat] | 1.2 |  |  | not accompanied by increases in azeB expression | 30 | full inhibition of PqsE catalytic activity
